Reference: article PMC11420954, “Structural and Functional Basis of GenB2 Isomerase Activity from Gentamicin Biosynthesis” (ACS Chemical Biology, 2024)
One block for each compound: values may come before it.

Legend:
GenB2 [1] = biological target: T1, GenB2 (Micromonospora echinospora, UniProt Q70KE6); assay: X-ray crystal structure of the complex; details: ternary complex with PMP; substrate-binding site; at least 100 mM ligand, pH 6.0, 18 °C
T1 construct: gene gacE; full length in pET28a, E. coli BL21(DE3), nickel IMAC and gel filtration; plasmid carries an extra 57 nucleotides at the 5' end; homodimer
T1 sequence (Q70KE6 entry or part of it): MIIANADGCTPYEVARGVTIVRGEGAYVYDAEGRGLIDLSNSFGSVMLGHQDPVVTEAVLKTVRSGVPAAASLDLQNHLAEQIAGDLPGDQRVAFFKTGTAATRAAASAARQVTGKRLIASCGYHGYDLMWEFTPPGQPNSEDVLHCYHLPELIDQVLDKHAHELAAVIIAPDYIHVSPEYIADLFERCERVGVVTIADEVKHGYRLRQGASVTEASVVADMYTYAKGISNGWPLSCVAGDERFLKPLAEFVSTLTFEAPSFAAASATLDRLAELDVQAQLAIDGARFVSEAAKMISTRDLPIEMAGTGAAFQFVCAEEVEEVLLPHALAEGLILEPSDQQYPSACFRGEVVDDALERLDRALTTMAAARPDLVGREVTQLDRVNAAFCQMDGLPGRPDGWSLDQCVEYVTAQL

GenB2 [2] = biological target: T1, GenB2; assay: epimerisation to gentamicin C2a, HPLC; assay type: biochemical; details: 200 μM substrate, 20 μM enzyme, 50 mM Tris-HCl pH 8.0, 30 °C, overnight
GenB2 [3] = biological target: T1, GenB2; assay: epimerisation to gentamicin C2, HPLC; assay type: biochemical; details: 200 μM substrate, 20 μM enzyme, 50 mM Tris-HCl pH 8.0, 30 °C, overnight
GenB2 [4] = biological target: T1, GenB2; assay: X-ray crystal structure of the holo enzyme; assay type: binding; details: copurified; coenzyme site at the dimer interface, no Schiff base with Lys227; pH 6.0
[5] = biological target: GenB2 (Micromonospora echinospora); assay: not stated; GenB2 in solution; the method is not told
[6] = biological target: GenB2 (Micromonospora echinospora); assay: crystal structure; holo GenB2 (PMP) and its complexes with G418 or gentamicin X2; space group C222(1), a single protomer in the asymmetric unit, dimer obtained by a symmetry operation; 0.1 M PIPES pH 6.0, 1 M NaCl, 29% PEG 4000, 30% 6-aminohexanoic acid, 18 °C

Compound: CN[C@@H]1[C@@H](O)[C@@H](O[C@@H]2[C@@H](O)[C@H](O[C@H]3O[C@H](CO)[C@@H](O)[C@H](O)[C@H]3N)[C@@H](N)C[C@H]2N)OC[C@]1(C)O (stereo in doubt) [gentamicin X2]
X-ray crystal structure of the complex (GenB2 [1]): we have obtained the structure of GenB2 in complex with gentamicin G418 and gentamicin X2

Compound: CN[C@@H]1[C@@H](O)[C@@H](O[C@@H]2[C@@H](O)[C@H](O[C@H]3O[C@H]([C@@H](C)N)CC[C@H]3N)[C@@H](N)C[C@H]2N)OC[C@]1(C)O [gentamicin C2]
epimerisation to gentamicin C2a, HPLC (GenB2 [2]): conversion of gentamicin C2 into C2a or C2a into C2

Compound: CN[C@@H]1[C@@H](O)[C@@H](O[C@@H]2[C@@H](O)[C@H](O[C@H]3O[C@H]([C@H](C)N)CC[C@H]3N)[C@@H](N)C[C@H]2N)OC[C@]1(C)O [gentamicin C2a]
epimerisation to gentamicin C2, HPLC (GenB2 [3]): wild-type GenB2 was able to perform a high ratio of conversion

Compound: Cc1ncc(COP(=O)(O)O)c(CN)c1O [pyridoxamine 5-phosphate]
X-ray crystal structure of the holo enzyme (GenB2 [4]): Each dimer of GenB2 has two PMP molecules bound at the interfaces between the protomers

stoichiometry N [5]: 2
stoichiometry N [6]: 2
Compound: GenB2 (enzyme)
